In article PMC12175168, “Refining the Amino Reactivity-Based Identification of Respiratory Sensitizers” (Chemical Research in Toxicology, 2025):
Several values for one entry are separate records, joined by “and”; a condition that tells them apart may be missing. Equal entries are not always repeated. Entries after “also recorded” stand apart in the source; their conditions may differ.

What was measured:
[1] = DPRA-like chemoassay with Gly-pNA (24 h percent depletion); conditions: PPB pH 7.4, 24 h, 25 °C, 50-fold excess of test compound
Method: (§1) In addition to the kinetic Gly-pNA chemoassay, the reactivity of the 27 compounds toward Gly-pNA and Lys-pNA was determined in terms of percentage depletions after reacting for 24 h at 25 °C employing the following DPRA-like setup: stock solutions for the test compounds were prepared by gravimetrically adding at least 3 mg of the respective compound into a glass vial (total volume 1.8 mL) and subsequent addition of 1 mL ACN. […] The stock solutions for Gly-pNA and Lys-pNA with a final concentration of 1.7 mM were prepared by dissolving the required amount in one of the three aqueous buffer solutions used for this DPRA-like chemoassay: phosphate buffer (80 mM, pH 7.4), phosphate buffer (80 mM, pH 10.2), and ammonium acetate buffer (100 mM, pH 10.2). Glass vials (1.8 mL) were used as reaction vessels.
(§2) In the final reaction mixtures, the concentration of Gly-pNA or Lys-pNA was 0.03 mM, and the test compound was 50 times in excess (1.5 mM). After incubation for 24 h at 25 °C, the free amount of either Gly-pNA or Lys-pNA was determined using the HPLC UV–vis method described for the kinetic Gly-pNA chemoassay. , The percentage depletion of Gly-pNA (D Gly) or Lys-pNA (D Lys) was determined directly from peak areas according to eq 3 Dx[%]=(Axcontrol−Ax/Axcontrol×100)withx=GlyorLys
(§3) In eq , A x and A x ^control are the peak areas of the chromatographic signal of either Gly-pNA (x = Gly) or Lys-pNA (x = Lys) at 315 nm after 24 h incubation with and without test compound, respectively.
(§4) Summary of experimental conditions of the DPRA-like setups used to determine
(§5) DGly, D Lys, and D DPRA data in Table 2 (main text).
(§6) Table S2. Overview of experimental conditions for the DPRA-like setups used to
(§7) determine 24 h percentage depletion rates for the reaction of the test compounds with
(§8) Gly-pNA, Lys-pNA, and the DPRA lysine peptide (literature data).

[2] = Kinetic Gly-pNA chemoassay (second-order rate constant k Gly); conditions: reaction with Gly-pNA, nominal test compound concentration; for k Gly ± s(k Gly), second-order rate constant: phosphate buffer 80 mM, 25 °C, ≥ values are minimum reactivity; for log k Gly: phosphate buffer;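 on all read-outs here: Gly-pNA depletion followed over time by chromatographic peak area, with test compound in at least tenfold excess (pseudo-first-order), added from acetonitrile stock, at least three runs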
Method: The reactivity of the 27 test compounds toward Gly-pNA was quantified in terms of the second-order reaction rate constant k Gly using our Gly-pNA chemoassay. , In brief, stock solutions of the test compound were freshly obtained every day by gravimetrically adding the required amount into a 10 mL volumetric flask, which was subsequently filled to volume with acetonitrile (ACN). The required amounts of test compounds depended on their reactivity toward Gly-pNA. […] As usual for kinetic studies, fast reacting chemicals are applied at lower concentrations than little reactive candidates. All stock solutions were stored at 25 °C in a climate chamber before first use (ca. 30 min) and for repeating an experiment (max. 6 h). Gly-pNA stock solution (1.69 mM) was obtained by dissolving 3.3 mg Gly-pNA in 10 mL phosphate buffer solution (80 mM) and could be used for several weeks if stored at 4 °C. For all chemoassay experiments, 1.8 mL glass vials were used as reaction batches, which were initially filled with 1070 μL phosphate buffer (80 mM) and 30 μL Gly-pNA stock solution. To start the reaction, 400 μL of the test compound stock solutions was added. […] The time between the start of the reaction and the first analysis was measured with an electronic time clock. All reactions were performed under pseudo-1st order conditions with the electrophile being at least ten times in excess over Gly-pNA.
For these compounds, the minimum reactivity was estimated in terms of k Gly by plotting ln (A Gly ^ t /A Gly ^0) vs reaction time t (with A Gly ^ t and A Gly ^0 being the peak areas under the chromatographic signal for Gly-pNA at time t and at the beginning of the reaction (t = 0)). Linear regression through 0 (at t = 0) and the first measurement point yields slope s (see Figure S1) which is the pseudo-1st order rate constant k Gly ^pseudo that can be converted with the initial test compound concentration in the reactions mixture (c) into k Gly according to eq . 1 kGly=kGlypseudo/c
2 Ln(AGlyt/AGly0)≈−kGly·c·t+0.5·kGly·kloss·c·t^2 Here k loss is the first order rate constant covering all processes contributing to the loss of the test compounds, except the reaction with Gly-pNA. The regression parameter of the linear part of eq (= k Gly·c) is the pseudo-1st order rate constant k Gly ^pseudo and can be converted into k Gly according to eq (see above).
Linear regression of these plots provides slope s, which is again the pseudo-1st order rate constant, k Gly ^pseudo, and can be used to calculate k Gly according to eq . All experiments to determine k Gly have been conducted at least three times.

[3] = ref Krutz et al., Sadekar et al., Ponder et al., Karol et al., Hopkins et al.; cited from earlier work
[4] = system: DPRA lysine peptide; design: method as in literature; conditions: AAB pH 10.2, 24 h; ref literature; cited from earlier work
[5] = Stability assessment of test compounds in aqueous buffers (half-lives)
Method: To this end, the test compound was dissolved in 1 mL ACN in a glass vial. […] As reaction batches, 1.8 mL glass vials equipped with 400 μL glass inserts were used and filled with 220 μL of the respective aqueous buffer and 80 μL of the test compound stock solution. The depletion of the test compounds was recorded with the HPLC UV–vis instrument used for the kinetic Gly-pNA chemoassay. , Chromatographic separation of the reaction mixture was achieved using the gradient described for the Gly-pNA chemoassay previously , and an isocratic HPLC method (water/ACN 70:30, both with 0.1 vol % formic acid). The wavelengths used for the detection of the compound and the information on the used chromatographic method are given in the Supporting Information in Table S3.

[6] = DPRA-like chemoassay with Lys-pNA (24 h percent depletion); conditions: 25 °C, 50-fold excess of test compound
Method: as §1, §2, §3, §4, §5, §6, §7, §8

[7] = aqueous ammonium acetate buffer with acetonitrile, pH 10.2
[8] = aqueous phosphate buffer with acetonitrile, pH 7.4
[9] = aqueous phosphate buffer with acetonitrile, pH 10.2
[10] = AAB (ammonium acetate buffer) pH 10.2, 24 h
[11] = PPB (phosphate buffer 80 mM) pH 7.4
[12] = buffer, pH 7.4, half-lives t 1/2 ± s(t 1/2), PPB (phosphate buffer 80 mM) pH 7.4
[13] = buffer, pH 10.2, half-lives t 1/2 ± s(t 1/2), AAP (ammonium acetate buffer 100 mM) pH 10.2
[14] = buffer, pH 10.2, half-lives t 1/2 ± s(t 1/2), PPB (phosphate buffer 80 mM) pH 10.2

| Compound | D Gly ± s(D Gly), 24 h percent depletion of Gly-pNA [1] | k Gly ± s(k Gly), second-order rate constant [2] | log k Gly [2] | Classification as potential respiratory sensitizer or non-sensitizer [3] | D DPRA ± s(D DPRA), depletion of the DPRA lysine peptide [4] [%] | half-life [5, 7] [min] | half-life [5, 8] [min] | half-life [5, 9] [min] | D Lys ± s(D Lys), 24 h percent depletion of Lys-pNA [6, 10] [%] | D Lys ± s(D Lys), 24 h percent depletion of Lys-pNA ([6]; PPB pH 10.2, 24 h) [%] | half-lives t 1/2 ± s(t 1/2) ([5]; AAP (ammonium acetate buffer 100 mM) pH 10.2) | half-lives t 1/2 ± s(t 1/2) [5, 11] | half-lives t 1/2 ± s(t 1/2) ([5]; PPB (phosphate buffer 80 mM) pH 10.2) | half-life [5, 12] [min] | half-life [5, 13] [min] | half-life [5, 14] [min] |
| --- | --- | --- | --- | --- | --- | --- | --- | --- | --- | --- | --- | --- | --- | --- | --- | --- |
| O=C1OC(=O)C2CCCCC12 (centres unmarked) [D1, hexahydrophthalic anhydride] | 100% | 2900 ± 110 L mol^–1 min^–1 | 3.46 | potential respiratory sensitizer | 56.4 ± 29.4 | < 1 | 4.36 ± 0.36 | 1.2 | 12.5 ± 0.5 | 100 |  |  |  |  |  |  |
| O=[N+]([O-])c1ccc(S(=O)(=O)O)c([N+](=O)[O-])c1 [E5, 2,4-dinitrobenzenesulfonic acid] | 5.9% and 5.9 ± 0.3% | not reactive |  | non-sensitizer | 27.4 |  |  |  | 0.9 ± 0.1 | 0 | did not show any significant signal depletion; also recorded: no depletion | no depletion | no depletion |  |  |  |
| O=C=NCCCCCCN=C=O [B1, hexamethylene diisocyanate] | 100% | 451 ± 33 L mol^–1 min^–1 | 2.65 | potential respiratory sensitizer | 41.6 ± 7.3 |  |  |  | 23.3 ± 0.3 | 98.7 ± 2.2 |  |  |  |  |  |  |
| O=C(O)c1ccc2c(c1)C(=O)OC2=O [C2, trimellitic anhydride] | 100% | ≥22271 ± 1975 L mol^–1 min^–1 | 4.35 | potential respiratory sensitizer | 59.9 ± 22.0 | < 1 | 110 ± 10 | 1 | 15.2 ± 0.6 | 100 |  |  |  |  |  |  |
| O=C=Nc1ccccc1 [A5, phenyl isocyanate] | 100% | ≥2368 ± 309 L mol^–1 min^–1 | ≥3.37 | potential respiratory sensitizer | 48.4 ± 1.1 |  |  |  | 10.2 ± 0.7 | 100 |  |  |  | < 1 | < 1 | < 1 |
| O=C=Nc1ccc(Cc2ccc(N=C=O)cc2)cc1 [A4, 4,4′-methylene diphenyl diisocyanate] | 100% | ≥20015 ± 4486 L mol^–1 min^–1 |  | potential respiratory sensitizer | 23.0 ± 6.2 |  |  |  | 22.9 ± 4.4 | 100 |  |  |  | 5.9 ± 1 | < 1 | 4.6 ± 0.3 |
| O=C1OC2(c3ccc(O)cc3Oc3cc(O)ccc32)c2ccc(N=C=S)cc21 [B3, fluorescein isothiocyanate] | 100% | 15.1 ± 2.6 L mol^–1 min^–1 |  | potential respiratory sensitizer | 61.1 |  |  |  | 56.5 ± 0.3 | 100 |  | no depletion |  |  | 8.21 ± 0.18 | 3500 ± 236 |
| C=CC(=O)OC [F2, methyl acrylate] | 16.6 ± 0.4% | 0.108 ± 0.005 L mol^–1 min^–1 | –0.97 | non-sensitizer | 86.5 ± 5.2 |  |  |  | 55.5 ± 0.7 | 67.9 ± 1.6 |  | no depletion |  |  | 629 ± 48 | 943 ± 63 |
| C=CC(=O)OCCCC [F3, butyl acrylate] | 15.2 ± 0.2% | 0.0826 ± 0.0141 L mol^–1 min^–1 | –1.08 | non-sensitizer | 87.8 ± 3.8 |  |  |  | 61.3 ± 0.4 | 74.4 ± 1.5 |  | no depletion |  |  | 929 ± 59 | 4250 ± 1800 |
| O=C1OC(=O)c2c(Cl)c(Cl)c(Cl)c(Cl)c21 [C3, tetrachlorophthalic anhydride] | 100% | ≥9816 ± 858 L mol^–1 min^–1 | 3.99 | potential respiratory sensitizer | 83.5 ± 0.7 |  |  |  | 11.5 ± 1.8 | 99.2 ± 0.7 |  |  |  | 24.3 ± 0.6 | < 1 | < 1 |
| CC1(C)CC(N=C=O)CC(C)(CN=C=O)C1 (centres unmarked) [B2, isophorone diisocyanate] | 100% | 256 ± 6 L mol^–1 min^–1 | 2.41 | potential respiratory sensitizer | 28.0 |  |  |  | 21.5 ± 0.3 | 100 |  |  |  |  |  |  |
